Measurements reported in PMC10508264, “Exploring the antioxidant, antimicrobial, cytotoxic and biothermodynamic properties of novel morpholine derivative bioactive Mn(II), Co(II) and Ni(II) complexes – combined experimental and theoretical measurements towards DNA/BSA/SARS-CoV-2 3CL^Pro” (RSC Medicinal Chemistry, 2023).

Target: BSA (Bos taurus, UniProt P02769)
Experiment: FRET computation, donor (BSA)–acceptor (compound)
Assay type: binding, bovine
Set-up: kET (rate of energy transfer): unit not given here
Details: for B (average brightness of complex–BSA system): free BSA 6573.60
Excerpt: The critical distance between donor and acceptor molecules can be estimated using the FRET approach to assess the binding affinity between BSA and a test substance.[13,33–35]
FRET is a non-destructive spectroscopic method consisting of a process between several electronic excited states of molecules that is dependent on distance (r). FRET can also be employed to distinguish the relative angular orientation and closeness of fluorophores.[82] The process happens when there is a large overlap between the absorption spectrum acceptor (compound/chromophore) and the donor's emission spectrum (BSA/fluorophore) (Fig. S30 ^†). Also, the average distance (r) between the donor and acceptor can be measured in accordance with this theory. Fluorescence is quenched due to energy being transmitted from the excited state of BSA to the substances (HL)/(1–3). As a result of the FRET analysis, the observed r findings were in the range of 2.4127–2.7129 nm (Table 5 and Fig. S30 ^†). […] The following conditions have a major impact on the effectiveness of FRET: (i) the distance (r) should be in the prescribed range of 2–8 nm for energy transfer; (ii) there is a large overlap between the emission spectrum of biomolecules (donors) and the electronic absorption spectrum of acceptors (substances); and (iii) the BSA and compound transition dipoles are oriented correctly. BSA transmits excitation energy to a compound during FRET without emitting a photon from the previous molecule system. Energy transfer (E) results were acquired from eqn (18) (Table 5). K^2 is associated with the geometry of the BSA and complex of the dipoles, the value for random orientation (K2 = 2/3) as in a fluid solution. Basically, the K^2 values were found in the range from 0 to 4, and energy can be transferred from BSA to the compound when electrons are transferred between the two molecules. For parallel transition dipoles that are aligned, K^2 is equal to 4, which denotes maximal energy transfer; and when the orientation of the dipoles is perpendicular to one another, K^2 is equal to 0, which denotes very weak energy transfer. When the relative orientation of the dipoles is random, K^2 is equal to 2/3. Eqn (20) is helpful for measuring the J values for overlap of the emission spectrum of BSA with the electronic absorption spectrum of the compound. The molar absorption coefficient (εA) and fluorescence emission intensity were both measured on the unit area scale of wavenumbers. It is imperative that J, after being normalized, is independent of the real size of εA. The following variables for the complex–BSA interaction are determined using eqn (18)–(23), n = 1.36, Φ = 0.15, E = 0.3462–0.5692, J = 0.8215–1.0886 × 10^−14 cm^3 L mol^−1, R0 = 2.4400–2.5573 nm, r = 2.4127–2.7129 nm, kET = 5.2941–13.2142 J s^−1 and B = 5339.79–6007.23 mol^−1 cm^−1 (Table 5). The observed values of R0 and r between BSA Trp213 and the interacting compound were substantially smaller than 8 nm and their relationships are found in the following sequence: 0.5R0 (1.2200–1.2786) < r (2.4127–2.7128) < 1.5R0 (3.6601–3.8358). […] Also, τ is denoted as the lifetime of fluorescence emission of the biomolecule and is described as the inverse of the entire degradation rate τ = 1/(kr + knr). The radiative lifetime of the fluorophore is represented as τ0 = 1/kr. The values of τ and Φ are associated with eqn (21) (Table 5). Quenching occurs when the ground or excited states of BSA come into contact with a compound in the solution. The intensity of fluorescence emission is also decreasing. Quenching is divided into the two main categories of dynamic and static quenching. While BSA is in an excited state, it binds with the substance during a dynamic or collisional quenching mechanism, and is then deactivated to the ground state without the emission of radiation. Therefore, the concentration of the quenching compounds affects dynamic quenching. The τ and Φ values for BSA diminish with an increase in the compound concentration. […]

[Mn+2].[O-]c1ccccc1N=Cc1ccc(N2CCOCC2)cc1.[O-]c1ccccc1N=Cc1ccc(N2CCOCC2)cc1.c1ccc(-c2ccccn2)nc1 [(1)]
E (efficiency of energy transfer): 0.4462
J (spectral overlap integral): 1.0886 × 10^−14 (LM^−1 cm^3)
R0 (Förster radius): 2.5573 nm
kET (rate of energy transfer): 8.0556
r (donor–acceptor distance): 2.6511 nm
B (average brightness of complex–BSA system): 6007.23 M⁻¹ cm⁻¹

[Co+2].[O-]c1ccccc1N=Cc1ccc(N2CCOCC2)cc1.[O-]c1ccccc1N=Cc1ccc(N2CCOCC2)cc1.c1ccc(-c2ccccn2)nc1 [(2)]
E (efficiency of energy transfer): 0.5000
J (spectral overlap integral): 1.0201 × 10^−14 (LM^−1 cm^3)
R0 (Förster radius): 2.5297 nm
kET (rate of energy transfer): 10.000
r (donor–acceptor distance): 2.5297 nm
B (average brightness of complex–BSA system): 5835.99 M⁻¹ cm⁻¹

[Ni+2].[O-]c1ccccc1N=Cc1ccc(N2CCOCC2)cc1.[O-]c1ccccc1N=Cc1ccc(N2CCOCC2)cc1.c1ccc(-c2ccccn2)nc1 [(3)]
E (efficiency of energy transfer): 0.5692
J (spectral overlap integral): 1.0145 × 10^−14 (LM^−1 cm^3)
R0 (Förster radius): 2.5274 nm
kET (rate of energy transfer): 13.2142
r (donor–acceptor distance): 2.4127 nm
B (average brightness of complex–BSA system): 5822.04 M⁻¹ cm⁻¹

Oc1ccccc1N=Cc1ccc(N2CCOCC2)cc1 [(HL), 2-(4-morpholinobenzylideneamino)phenol]
E (efficiency of energy transfer): 0.3462
J (spectral overlap integral): 0.8215 × 10^−14 (LM^−1 cm^3)
R0 (Förster radius): 2.4400 nm
kET (rate of energy transfer): 5.2941
r (donor–acceptor distance): 2.7129 nm
B (average brightness of complex–BSA system): 5339.79 M⁻¹ cm⁻¹
